How the values were obtained:
[1] = test system: Human B-lymphoma cell: Ramos; assay: Half inhibitory concentration (IC50) against tumor cells, CCK-8 cell viability; type: cell-based; conditions: 96 h treatment
Description: (§1) The tumor cells used herein were cultured in a cell culture medium listed in table 2 at 37° C. in an incubator with 5% CO2. Prior to experimentation, all cells used were correctly identified by STR profiling, and tested negative for mycoplasma through routine screenings. [table] Determination of Half Inhibitory Concentration (IC50) of the Compounds Against Tumor Cells: IC50 values of the compounds of the present disclosure (including the compounds in Table 1, and compounds of examples 1-104) were measured using the Meilun Cell Counting Kit-8 kit from Dalian Meilun Biotech Co., Ltd. Assay details are as follows: tumor cells were seeded in a 96-well plate at a density listed in Table 3. After 24 h, 100 μL of the inoculated cells were treated with 0.5 μl of the compounds of the present disclosure (including the compounds in Table 1, and compounds of examples 1-104) at 10 different successively decreasing concentrations (starting at the highest concentration of […]; 5-fold serial dilutions). After the cells were treated with the compounds of the present disclosure for a period of time, cell viability was measured according to the instructions provided with the CCK-8 kit. DMSO served as the negative control, and corresponding commercial immunomodulatory drug Avadomide (CC-122) was used as the positive control, both of which treated the cells using the same protocol as that of the compounds of the present disclosure. The growth inhibition of the compounds of the present disclosure on cells was plotted by Prism Graphpad software, and the IC50 values of the compounds of the present disclosure were calculated therefrom. [table] We tested the activities of the compounds of the present invention (including the compounds in Table 1 and Examples 1-104 compounds) in tumor cells through a dose-dependent manner. The cells were treated with the compounds of the present invention at 10 different successively decreasing concentrations (starting at the highest concentration of 10 μM; 5-fold serial dilutions) for 72 h or 96 h, and then the cell viability determination was performed in accordance with CCK-8 reagent operating instructions.

[2] = test system: Human multiple myeloma cells: MM.1S; assay: as above; type: cell-based; conditions: MM1.S, MM.1S cells, 72 h treatment
Description: as §1

[3] = test system: Human diffuse large B-cell lymphoma cell line: TMD8; assay: as above; type: cell-based; conditions: 96 h treatment
Description: as §1

[4] = test system: Human Burkitt's lymphoma cell line: Daudi; assay: as above; type: cell-based; conditions: 96 h treatment
Description: as §1

[5] = test system: Human dexamethasone-resistant multiple myeloma cell line: MM.1R; assay: as above; type: cell-based; conditions: MM.1R cells, 72 h treatment
Description: as §1

[6] = test system: Human colon cancer cell: SW620; assay: as above; type: cell-based; conditions: SW-620, 96 h treatment
Description: as §1

[7] = test system: Human cell line: Kasumi-1; assay: as above; type: cell-based; conditions: Kasumi-1 cells, 72 h treatment
Description: as §1

[8] = biological target: human Cereblon WT GST-tagged protein (Homo sapiens (Human), UniProt Q96SW2); assay: CRBN-binding affinity, CEREBLON BINDING kit (HTRF); conditions: HTRF inhibitory activity, binding to CRBN
Description: Determination of CRBN-Binding Affinity of Compounds
The CEREBLON BINDING kits (specification: 10,000 tests; product number: Catalog #64BDCRBNPEH; CISBIO company) was used to determine the CRBN binding ability of the compounds to be tested through a HTRF method (homogeneous time-resolved fluorescence). The specific methods are as follows: • 1. According to the instructions of the CEREBLON BINDING kits, the compounds to be tested of the present invention and lenalidomide were serially diluted using diluent #9 (1×) solution to obtain a final concentration of 2 μM for both the tested compounds and lenalidomide solution. • 2.2.5 μL of the above 2 μM of the tested compounds and lenalidomide solution, as well as the same volume of diluent #9 (1×) solution (solvent control group, Std0) were taken and added to each well of a 96-well plate, respectively. Then, 2.5 μL of (human Cereblon WT GST-tagged protein) solution was added to each well. Finally, 5 μL of the uniformly mixed thalidomide-Red reagent and GST Eu antibody working solution were added to each of the above wells. The final concentration of the tested compounds and lenalidomide in each well is 0.5 μM. • 3. The blank control wells were sequentially added with 2.5 μL of diluent #9 (1×) solution, 2.5 μL of PROTAC binding buffer, and 5 μL of uniformly mixed thalidomide-Red reagent and GST Eu antibody working solution. • 4. After sealing and incubating the solutions in the above wells at room temperature for 3 hours, the absorbance values at emission wavelengths of 620 nm and 665 nm were detected by the HTRF method using a Spark microplate reader (V3.1 SP1).
The corresponding CRBN binding inhibition rate was calculated using the following method: […]
Note: OD 665 nmcompound is the absorbance value of each well of the compounds to be tested of the present disclosure at an emission wavelength of 665 nm.
OD 620 nmcompound is the absorbance value of each well of the compounds to be tested of the present disclosure at an emission wavelength of 620 nm.
OD 665 nmcontrol is the absorbance value of the blank control well at an emission wavelength of 665 nm.
OD 620 nmcontrol is the absorbance value of the blank control well at an emission wavelength of 620 nm.
OD 665 nmstd0 is the absorbance value of the solvent control well at an emission wavelength of 665 nm.
OD 620 nmstd0 is the absorbance value of the solvent control well at an emission wavelength of 620 nm.

human Cereblon WT GST-tagged protein, sequence (Q96SW2 whole entry): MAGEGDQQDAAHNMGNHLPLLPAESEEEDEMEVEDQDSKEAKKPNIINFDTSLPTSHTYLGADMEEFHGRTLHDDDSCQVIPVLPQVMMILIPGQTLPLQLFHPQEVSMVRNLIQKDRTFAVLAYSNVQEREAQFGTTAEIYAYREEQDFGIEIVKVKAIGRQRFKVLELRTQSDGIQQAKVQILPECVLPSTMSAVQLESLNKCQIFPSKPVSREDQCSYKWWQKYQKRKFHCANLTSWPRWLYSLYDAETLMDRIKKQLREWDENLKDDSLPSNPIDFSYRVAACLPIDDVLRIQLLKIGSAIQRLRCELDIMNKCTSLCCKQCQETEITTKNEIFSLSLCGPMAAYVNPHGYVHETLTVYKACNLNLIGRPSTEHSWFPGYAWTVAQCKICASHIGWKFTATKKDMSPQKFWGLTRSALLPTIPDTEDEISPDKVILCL

IC50 [1] [µM]	IC50 [2] [µM]	IC50 [3] [µM]	IC50 [4] [µM]	IC50 [5] [µM]	IC50 [6] [µM]	IC50 [7] [µM]	IC50 [8] [µM]	Structure (SMILES)
1.33	0.0469	0.89	1.65	0.464	> 10	> 10		Cc1nc2cccc(N)c2c(=O)n1C1CCC(=O)NC1=O (centres unmarked) [CC-122, Avadomide, reference compound]
0.49		0.204	0.286	0.276				Cc1nc2cccc(SCCCN3CCN(C(c4ccc(F)cc4)c4ccc(F)cc4)CC3)c2c(=O)n1C1CCC(=O)NC1=O (centres unmarked) [GT-03387, 3-(5-((3-(4-(bis(4-fluorophenyl)methyl)piperazin-1-yl)propyl)thio)-2-methyl-4-oxoquinazolin-3(4H)-yl)piperidine-2,6-dione]
0.165	0.0796	0.186	0.155	0.0328	0.0358	0.104	1.72	Cc1nc2cccc(NCCN3CCN(CCC45CC6CC(CC(C6)C4)C5)CC3)c2c(=O)n1C1CCC(=O)NC1=O (centres unmarked) [GT-03301, 3-(5-((2-(4-(2-((3r,5r,7r)-adamantan-1-yl)ethyl)piperazin-1-yl)ethyl)amino)-2-methyl-4-oxoquinazolin-3(4H)-yl)piperidine-2,6-dione]
		0.413			0.387			Cc1nc2cccc(N3CC(C)N(CCC45CC6CC(CC(C6)C4)C5)C(C)C3)c2c(=O)n1C1CCC(=O)NC1=O (centres unmarked) [GT-04246, 3-(5-(4-(2-((3r,5r,7r)-adamantan-1-yl)ethyl)-3,5-dimethylpiperazin-1-yl)-2-methyl-4-oxoquinazolin-3(4H)-yl)piperidine-2,6-dione]
0.398							2.4	Cc1nc2cccc(SCCCN3CCN(CC45CC6CC(CC(C6)C4)C5)CC3)c2c(=O)n1C1CCC(=O)NC1=O (centres unmarked) [GT-03235, 3-(5-((3-(4-(((1s,3s)-adamantan-1-yl)methyl)piperazin-1-yl)propyl)thio)-2-methyl-4-oxoquinazolin-3(4H)-yl)piperidine-2,6-dione]
0.0893	0.0293	0.0865	0.0449	0.0127	0.0186	0.0223	1.57	Cc1nc2cccc(SCCCN3CCN(CCC45CC6CC(CC(C6)C4)C5)CC3)c2c(=O)n1C1CCC(=O)NC1=O (centres unmarked) [GT-03306, 3-(5-((3-(4-(2-((3r,5r,7r)-adamantan-1-yl)ethyl)piperazin-1-yl)propyl)thio)-2-methyl-4-oxoquinazolin-3(4H)-yl)piperidine-2,6-dione]
0.652			0.545	0.204		0.694		Cc1nc2cccc(SCCCN3CCN(C(c4ccc(Cl)cc4)c4ccc(Cl)cc4)CC3)c2c(=O)n1C1CCC(=O)NC1=O (centres unmarked) [GT-03697, 3-(5-((3-(4-(bis(4-chlorophenyl)methyl)piperazin-1-yl)propyl)thio)-2-methyl-4-oxoquinazolin-3(4H)-yl)piperidine-2,6-dione]

— patent publication US20240425475A1, “COMPOUND BASED ON QUINAZOLINE-SUBSTITUTED GLUTARIMIDE SKELETON AND USE THEREOF” (GLUETACS THERAPEUTICS (SHANGHAI) CO., LTD., priority 2022, published 2024)
